Measurements taken from US9567301B2, “Pyrrol-1-yl benzoic acid derivatives useful as myc inhibitors” (Whitehead Institute for Biomedical Research, priority 2012, dated 2017).
Like-named read-outs stand apart in the source and are kept apart here.

Tests used:
c-Myc/Max/Ebox DNA = c-Myc/Max/Ebox DNA (Homo sapiens, UniProt P01106); test: c-Myc/Max/Ebox DNA AlphaScreen assay; type: binding; parameters: An exemplary assay uses full-length human c-Myc and Max proteins; his6 (cleaved yes); made in house
Procedure, shortened: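 Free c-Myc (25 nM), made by thrombin removal of the His6 tag, is pre-mixed with biotin-Ebox DNA (10 nM) and Ni acceptor beads before compound addition, then His6-Max (1.25 nM) and streptavidin donor beads are added. Buffer is HEPES pH 8.0 with BSA, Tween20, glycogen and DTT. Read after 2 h, excitation 680 nm, emission 520–620 nm.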

Jurkat cells = test: Cell viability assay (ATPlite), Jurkat; type: cell-based, human; details: class symbols, NA: not active under assay conditions
Procedure: (§1) This assay was used for the H2171 and MM1S cell data shown in Table 2, and for the Jurkat (an immortalized line of human T lymphocyte cells), Ly1 (OCI-Ly1 human non-Hodgkin lymphoma cell line), Ly4 (OCI-Ly4 human non-Hodgkin lymphoma cell line), H2172 (NCI-H2172 human non-small cell lung cancer cell line), and CA-46 (a human Burkitt's lymphoma cell line) cell data shown in Table 3 and FIG. 12. Cells were counted and adjusted to 60,000 cells/mL. Using a Biotek EL406, 50 μL of cells are media were distributed into 384 well white plates from Thermo. Immediately after plating, compound in DMSO was distributed to plates. For large plate sets, cells were returned to 37° C. incubator while not in use.
(§2) Compounds were added to plates using a 100 nL 384 well pin transfer manifold on a Janus workstation. Stocks were arrayed in 10 point quadruplicate dose response in DMSO stock in 384 well Greiner compound plates. After addition of compound, plates were incubated for three days in a 37° C. incubator.
(§3) Cell viability was read out using ATPlite from Perkin Elmer. Plates were removed from the incubator and brought to room temperature prior to use. Lyophilized powder was resuspended in lysis buffer and diluted 1:2 with DI water. 25 μL of this solution was added to each well using the Biotek liquid handler. Plates were sealed with adherent aluminum seals prior to vortexing and spinning down at 1000 g for 1 minute. Plates were incubated for 15 minutes at room temperature before signal was read on an Envision Plate Reader.

MM1S cells = test: Cell viability assay (ATPlite), MM1S; type: cell-based, human; details: Homo sapiens, MM1.S, 72 h, cell viability, three days, ATPlite; NA: inactive under assay conditions
Procedure: as §1, §2, §3

H2171 cells = test: Cell viability assay (ATPlite), H2171; type: cell-based, human; details: Homo sapiens, NCI-H2171, 72 h, cell viability, three days, ATPlite; NA: inactive under assay conditions
Procedure: as §1, §2, §3

[1] = class symbols, NA: not active under assay conditions, read-out: Myc/Max IC50

c-Myc/Max/Ebox DNA, sequence (P01106 16-454): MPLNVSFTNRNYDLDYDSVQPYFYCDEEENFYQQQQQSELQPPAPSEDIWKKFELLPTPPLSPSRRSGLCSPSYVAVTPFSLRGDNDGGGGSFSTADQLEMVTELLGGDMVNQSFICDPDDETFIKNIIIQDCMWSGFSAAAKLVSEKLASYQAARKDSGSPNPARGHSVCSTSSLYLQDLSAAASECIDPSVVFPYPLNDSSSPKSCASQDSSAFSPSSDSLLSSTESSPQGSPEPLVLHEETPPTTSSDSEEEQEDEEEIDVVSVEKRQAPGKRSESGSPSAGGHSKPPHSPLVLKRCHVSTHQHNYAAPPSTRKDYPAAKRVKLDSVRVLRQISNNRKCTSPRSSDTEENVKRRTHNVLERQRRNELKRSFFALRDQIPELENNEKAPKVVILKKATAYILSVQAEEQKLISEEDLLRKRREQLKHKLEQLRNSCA

SMILES | IC50 (c-Myc/Max/Ebox DNA; [1]) [µM] | EC50 (Jurkat cells; Homo sapiens, Jurkat) [µM] | also measured
Cc1ccc(C)n1-c1ncccc1C(=O)O [Compound 134] | 1 to 10 | ≥ 100 | –
COc1cc(C(=O)OCOC(C)=O)c(-n2c(C)ccc2C)cc1OC [Compound 160] | – | – | EC50 (MM1S cells): 211 µM; EC50 (H2171 cells): 104 µM; IC50 (c-Myc/Max/Ebox DNA; c-Myc/Max/Ebox DNA AlphaScreen, NA: inactive under assay conditions, read-out: Biochemical IC50): 94.6 µM
Cc1ccc(C)n1-c1cc(C(=O)N2CCCC(c3ccc(C(=O)O)cc3)C2)ccc1C(=O)O (centres unmarked) [Compound 164] | 1 to 10 | ≥ 100 | –
Cc1ccc(C)n1-c1cc(-c2nnc(-c3cccc(C(=O)O)c3)o2)ccc1C(=O)O [Compound 167] | 10 to 100 | 10 to 100 | –
Cc1ccc(C)n1-c1cc(C(=O)N2CCCC(c3cccc(C(=O)O)c3)C2)ccc1C(=O)O (centres unmarked) [Compound 169] | 1 to 10 | ≥ 100 | –
Cc1ccccc1N1CCN(C(=O)c2ccc(C(=O)O)c(-n3c(C)ccc3C)c2)CC1 [Compound 179] | 10 to 100 | ≥ 100 | –
Cc1ccc(C)n1-c1ccccc1C(=O)NS(C)(=O)=O [Compound 180] | 10 to 100 | ≥ 100 | –
Cc1ccc(C)n1-c1cccnc1C(=O)O [Compound 181] | 1 to 10 | ≥ 100 | –
Cc1ccc(C)n1-c1cc(C(=O)N2CCN(c3cccc(O)c3)CC2)ccc1C(=O)O [Compound 182] | 1 to 10 | ≥ 100 | –
COC(=O)c1ccc(C(=O)NNC(=O)OC(C)(C)C)cc1-n1c(C)ccc1C [Compound 184] | ≥ 100 | ≥ 100 | –
COc1ccc(C2CCCN(C(=O)c3ccc(C(=O)O)c(-n4c(C)ccc4C)c3)C2)cc1 (centres unmarked) [Compound 185] | 10 to 100 | ≥ 100 | –
Cc1ccc(C)n1-c1cc(C(=O)N2CCCC(c3ccc(C(=O)NS(C)(=O)=O)cc3)C2)ccc1C(=O)NS(C)(=O)=O (centres unmarked) [Compound 186] | ≥ 100 | ≥ 100 | –
Cc1ccc(C)n1-c1ncccc1C(=O)NS(C)(=O)=O [Compound 187] | ≥ 100 | ≥ 100 | –
Cc1ccc(C)n1-c1cc(C(=O)N2CCCC(c3ccccc3)C2)ccc1C(=O)O (centres unmarked) [Compound 188] | 10 to 100 | ≥ 100 | –
COc1cccc(C2CCCN(C(=O)c3ccc(C(=O)O)c(-n4c(C)ccc4C)c3)C2)c1 (centres unmarked) [Compound 189] | 1 to 10 | 10 to 100 | –
Cc1ccc(C)n1-c1ccccc1C(=O)NS(=O)(=O)C1CC1 [Compound 190] | ≥ 100 | 10 to 100 | –
Cc1ccc(C)n1-c1ccccc1C(=O)NS(=O)(=O)c1ccccc1 [Compound 191] | ≥ 100 | 10 to 100 | –
Cc1ccc(C(F)(F)F)n1-c1ccccc1C(=O)O [Compound 192] | ≥ 100 | 10 to 100 | –
Cc1ccc(C)n1-c1cc(CNCc2ccc(C(=O)O)cc2)ccc1C(=O)O [Compound 193] | < 1 | ≥ 100 | –
Cc1ccc(C)n1-c1cc(C(=O)N2CCN(c3cccnc3)CC2)ccc1C(=O)O [Compound 194] | ≥ 100 | 10 to 100 | –
Cc1ccc(C)n1-c1cc(C(=O)N2CCN(c3cccc(C(=O)O)c3)CC2)ccc1C(=O)O [Compound 195] | < 1 | ≥ 100 | –
Cc1ccc(C)n1-c1cc(CNCc2cccc(C(=O)O)c2)ccc1C(=O)O [Compound 196] | 1 to 10 | ≥ 100 | –
O=C(O)c1ccccc1-n1c(Br)ccc1C(F)(F)F [Compound 197] | 10 to 100 | ≥ 100 | –
Cc1ccc(C)n1-c1cc(C(=O)N2CCN(c3ccccc3C(=O)O)CC2)ccc1C(=O)O [Compound 198] | 1 to 10 | ≥ 100 | –

SMILES | IC50 (c-Myc/Max/Ebox DNA; [1]) [µM] | EC50 (Jurkat cells; Homo sapiens, Jurkat) [µM] | also measured
Cc1ccc(C)n1-c1cc(C(=O)N2CCN(c3ccc(C(=O)O)cc3)CC2)ccc1C(=O)O [Compound 199] | 1 to 10 | 10 to 100 | –
Cc1ccccc1C1CCCN(C(=O)c2ccc(C(=O)O)c(-n3c(C)ccc3C)c2)C1 (centres unmarked) [Compound 200] | ≥ 100 | 10 to 100 | –
Cc1ccc(C)n1-c1cc(C(=O)N2CCCC(c3ccc(Cl)cc3)C2)ccc1C(=O)O (centres unmarked) [Compound 201] | 10 to 100 | 10 to 100 | –
Cc1ccc(C)n1-c1cc(C(=O)N2CCC=C(c3ccc(C(=O)O)cc3)C2)ccc1C(=O)O [Compound 202] | 10 to 100 | 10 to 100 | –
Cc1ccc(C)n1-c1cc(C(=O)N2CCCC(c3ccccc3C(=O)O)C2)ccc1C(=O)O (centres unmarked) [Compound 203] | < 1 | ≥ 100 | –
Cc1ccc(C)n1-c1cc(C(=O)N2CCC=C(c3cccc(C(=O)O)c3)C2)ccc1C(=O)O [Compound 204] | 10 to 100 | 10 to 100 | –
Cc1ccc(C)n1-c1cc(C(=O)N2CCCC(c3ccc(C(=O)NS(C)(=O)=O)cc3)C2)ccc1C(=O)O (centres unmarked) [Compound 205] | 1 to 10 | ≥ 100 | –
Cc1ccc(C)n1-c1cc(-c2nnc(-c3ccc(C(=O)O)cc3)o2)ccc1C(=O)O [Compound 206] | 10 to 100 | 10 to 100 | –
Cc1ccc(C)n1-c1cc(C(=O)N2CCCC(c3ccccc3O)C2)ccc1C(=O)O (centres unmarked) [Compound 207] | 10 to 100 | ≥ 100 | –
Cc1ccc(C)n1-c1cc(C(=O)N2CCCC(c3ccc(CC(=O)O)cc3)C2)ccc1C(=O)O (centres unmarked) [Compound 208] | 1 to 10 | 10 to 100 | –
Cc1ccc(C)n1-c1cc(C(=O)N2CCCC(c3ccc(C(=O)O)cc3)C2)ccc1C(=O)O (centres unmarked) [Compound 209] | 10 to 100 | – | EC50 (Jurkat cells): ≥ 100 µM
Cc1ccc(C)n1-c1cc(C(=O)N2CCCC(c3ccc(C(=O)O)cc3)C2)ccc1C(=O)O (centres unmarked) [Compound 210] | 10 to 100 | – | EC50 (Jurkat cells): ≥ 100 µM
COC(=O)c1ccc(C(=O)NN)cc1-n1c(C)ccc1C [Compound 211] | ≥ 100 | ≥ 100 | –
Cc1cccc(C2CCCN(C(=O)c3ccc(C(=O)O)c(-n4c(C)ccc4C)c3)C2)c1 (centres unmarked) [Compound 212] | 10 to 100 | 10 to 100 | –
COc1ccccc1C(=O)N1CCN(C(=O)c2ccc(C(=O)O)c(-n3c(C)ccc3C)c2)CC1 [Compound 213] | ≥ 100 | ≥ 100 | –
Cc1ccc(C)n1-c1cc(Br)ccc1C(=O)NS(C)(=O)=O [Compound 214] | ≥ 100 | 10 to 100 | –
Cc1cnc(C(=O)N2CCN(C(=O)c3ccc(C(=O)O)c(-n4c(C)ccc4C)c3)CC2)cn1 [Compound 215] | 10 to 100 | ≥ 100 | –
Cc1ccc(C)n1-c1cc(C(=O)N2CCN(C(=O)c3cccnc3)CC2)ccc1C(=O)O [Compound 216] | 10 to 100 | ≥ 100 | –
Cc1ccc(C)n1-c1cc(C(=O)N2C[C@H](c3ccccc3)[C@@H](O)C2)ccc1C(=O)O [Compound 217] | 10 to 100 | ≥ 100 | –
COc1ccc(C(=O)N2CCN(C(=O)c3ccc(C(=O)O)c(-n4c(C)ccc4C)c3)CC2)cc1 [Compound 218] | 10 to 100 | 10 to 100 | –
Cc1ccc(C)n1-c1cc(-c2nnc(-c3ccc(OCc4ccccc4)c(OCc4ccccc4)c3OCc3ccccc3)o2)ccc1C(=O)O [Compound 219] | 1 to 10 | < 10 | –
COc1cccc(C(=O)N2CCN(C(=O)c3ccc(C(=O)O)c(-n4c(C)ccc4C)c3)CC2)c1 [Compound 220] | 10 to 100 | ≥ 100 | –
Cc1ccc(C)n1-c1cc(C(=O)N2CCCC(c3ccc(C(=O)O)cc3)C2)ccc1C(=O)NS(C)(=O)=O (centres unmarked) [Compound 221] | 10 to 100 | ≥ 100 | –
